From publication PMC8776337, “Peptides Derived from Vascular Endothelial Growth Factor B Show Potent Binding to Neuropilin‐1” (Chembiochem, 2021)
Several values for one entry are separate records, joined by “and”; a condition that tells them apart may be missing. Identical values can stand only once. Like-named read-outs stand apart in the source and are kept apart here. Positions of bridges follow the written chain, without caps; N, C: chain ends. Residues, ends and D or L forms follow the SMILES beside them. No end group written: not given here. *: point of attachment. Palmitoyl = CCCCCCCCCCCCCCCC(=O)*; Hpt = not defined here

T1: NRP1‐b1 (Homo sapiens, UniProt O14786)
T1 construct: the immobilized b1 domain of NRP1 (NRP1‐b1); poly-histidine (TEV-cleavable) (cleaved yes); made in house; host or cells: E. coli Rosetta (DE3)
T1 sequence (O14786 275-424 limits assumed): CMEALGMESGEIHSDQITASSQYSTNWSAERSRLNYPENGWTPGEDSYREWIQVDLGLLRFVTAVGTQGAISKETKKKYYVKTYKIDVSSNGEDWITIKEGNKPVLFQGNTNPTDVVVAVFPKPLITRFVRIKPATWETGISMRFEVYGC

T2: b1 domain of neuropilin‐1 (NRP1‐b1) (human, UniProt O14786 273-427)
T2 construct: neuropilin-1, human, b1 domain; also called NRP1‐b1 domain; NRP1 b1 domain; source: E. coli Rosetta (DE3), purified (HisTrap, TEV cleavage, Superdex 75, SP FF ion exchange)
T2 sequence: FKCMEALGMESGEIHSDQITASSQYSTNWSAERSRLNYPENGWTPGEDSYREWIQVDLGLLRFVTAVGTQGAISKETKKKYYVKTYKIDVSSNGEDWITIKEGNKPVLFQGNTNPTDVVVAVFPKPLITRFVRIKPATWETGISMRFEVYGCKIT


How the values were obtained:
[1] = target: T3, bt‐VEGF‐A165 binding to NRP1 in HUVEC cells (Homo sapiens, UniProt O14786); experiment: Cell based binding assay, inhibition of bt-VEGF-A165 binding to NRP1; conditions: for IC50: 4 °C, 2 h, streptavidin-horseradish peroxidase detection; for HS (of the inhibition curve of bt‐VEGF‐A165 binding to NRP1): HUVEC cells
T3 construct: expressed in transfected cells
T3 sequence (O14786 22-923): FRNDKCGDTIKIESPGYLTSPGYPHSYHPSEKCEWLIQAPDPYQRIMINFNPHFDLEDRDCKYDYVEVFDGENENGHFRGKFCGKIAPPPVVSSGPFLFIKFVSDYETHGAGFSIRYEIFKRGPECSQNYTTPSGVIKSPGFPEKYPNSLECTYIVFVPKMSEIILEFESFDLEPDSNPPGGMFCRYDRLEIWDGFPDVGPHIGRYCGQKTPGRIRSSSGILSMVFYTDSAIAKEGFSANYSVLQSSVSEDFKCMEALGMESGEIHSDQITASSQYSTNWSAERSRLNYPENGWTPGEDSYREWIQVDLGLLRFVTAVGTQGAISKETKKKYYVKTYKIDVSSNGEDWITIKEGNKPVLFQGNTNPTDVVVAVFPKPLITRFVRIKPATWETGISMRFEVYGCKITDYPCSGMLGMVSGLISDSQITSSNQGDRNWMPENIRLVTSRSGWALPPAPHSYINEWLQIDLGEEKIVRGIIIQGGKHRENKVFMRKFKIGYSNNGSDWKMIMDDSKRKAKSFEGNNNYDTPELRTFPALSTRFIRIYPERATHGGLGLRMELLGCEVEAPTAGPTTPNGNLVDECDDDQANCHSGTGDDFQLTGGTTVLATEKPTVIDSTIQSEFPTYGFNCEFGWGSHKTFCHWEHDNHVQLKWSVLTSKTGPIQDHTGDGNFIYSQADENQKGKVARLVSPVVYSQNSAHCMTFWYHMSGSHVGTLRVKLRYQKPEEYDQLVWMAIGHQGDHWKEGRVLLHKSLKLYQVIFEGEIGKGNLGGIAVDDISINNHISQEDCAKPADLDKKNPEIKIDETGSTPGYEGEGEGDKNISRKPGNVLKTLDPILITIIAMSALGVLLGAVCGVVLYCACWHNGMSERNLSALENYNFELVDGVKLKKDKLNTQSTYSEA
Procedure: A) N‐terminal palmitoyl VEGF‐B167 derived peptide MGC0174. B) Lysine palmitoyl peptide MGC0173. C) N‐terminal palmitoyl VEGF‐A165 derived peptide MGC0171. D) Lysine VEGF‐A165 palmitoyl peptide MGC0172.
Cell based binding assay for bt‐VEGF binding to NRP1‐b1: A flat‐bottomed 96 well plate was coated with 100 μL 10 μg/mL Poly‐D‐lysine (110 μL in 10890 μL PBS) and incubated for 1 hour at R.T. DU145 cells were seeded at a concentration of 20,000 DU145 cells/well in DMEM with 10 % FBS and incubated for 4 hours. Cells were then infected with 0.3 μL per well of adenovirus expressing NRP1 (stock at 1×1012 vp/mL) and incubated for 40 hours. The media was removed followed by washing cells twice in 200 μL of PBS per well. The plate was placed on ice and 50 μL of binding medium was added per well for total binding. Next, 50 μL of 100‐fold excess (100×btVEGF‐A165) of unlabelled‐VEGF (diluted in binding medium) was added per well for non‐specific binding. Peptides (50 μL) at the indicated concentrations were diluted in binding medium and added to specified wells. bt‐VEGF (50 μL of 4 nM; diluted in binding medium) was added per well for both total and non‐specific binding and samples. The plate was incubated at 4 °C for 2 hours. The plate was then placed on ice and the medium was removed followed by gently washing the cells 3 times in 200 μL of PBS per well.
Streptavidin‐horseradish peroxidase (100 μL; dilute to the working concentration specified on the vial label using PBS+1 % BSA=1 : 200) was added to each well. The plate was sealed and incubated for 30 minutes at room temperature. Three more washes with 200 μL PBS were done. Then, 100 μL of substrate solution was added to each well (protected from light). Colour Reagent A and B were mixed together in equal volumes within 15 minutes of use. The plate was sealed and incubated for 20 minutes at room temperature. Stop solution (50 μL) was added to each well ensuring even mixing. The plate was read using Tecan Genios plate reader using a 450 nm cut‐off filter and also with a reference 595 nm cut‐off filter. Nonspecific binding was determined in the absence of NP‐1 coated on the microplate.

NRP1‐b1 = target: T1, NRP1‐b1; experiment: SPR binding of peptides to immobilised NRP1-b1; conditions: for Receptor occupancy: immobilised NRP1-b1
Description: We then designed four additional peptides with added lipid chains (Figures 3 and 4). We investigated the effect of lipidation on the N‐terminus (MGC0171 and MGC0174) and on the side chain of a lysine in close proximity to the C‐terminus (MGC0172 and MGC0173) as shown (Figure 5). For the SPR analysis of the lipidated peptides we fitted data to a two‐state reaction model to account for the nonspecific binding of the palmitoyl side chains. Since the model assumes two binding events it provides two association (k a) and dissociation (k d) rates, and the overall equilibrium dissociation constant is calculated using the equation: KD=KD1(1+KD2), in which KD1 and KD2 are obtained as […]. The inverse of the dissociation rate corresponds to the residence time. […] The lipidated peptides were also tested for inhibition of VEGF‐A165 binding to NRP1 in a cell‐based assay (Figure 8).
Surface plasmon resonance: SPR measurements were performed using either Biacore T200 or Biacore 4000 at a constant temperature of 25 °C. All sensor chips, stock buffers, and immobilisation reagents were purchased from GE Healthcare/Cytvia and were prepared according to the manufacturer's instructions.
Chip preparation: PBS containing 0.05 % surfactant P20 was used as the running buffer during immobilisation. Proteins were immobilised onto a CM5 chip using random amine coupling following a standard procedure using the conditions specified in Table 2. A flow cell upstream of the treated flow cell was used as a reference which allowed removal of non‐specific binding to the chip.
Kinetic measurements of peptides: Peptides were injected over immobilized NRP1‐b1 for 60 s, followed by 120 or 180 s dissociation. The surface was regenerated with 1 M NaCl between injections. The SPR response curves were fit to a binding model to obtain association (ka ) and dissociation (kd ) rates which were then converted into equilibrium dissociation constant (KD ) and residence time. For a 1 : 1 binding model […] and for a two‐state binding model KD=K1(1+K2). Residence time was calculated as 1/kd .

[2] = Peptide stability in mouse plasma; assay type: in vitro ADME; conditions: mouse plasma pH 7.4, 37 °C, LC-MS/MS, triplicate (n=1); for Stability in mouse plasma (in words): 10 μM, 0.24 % DMSO, 0, 5, 15, 30, 60, 120 min
Procedure: Figure 9 Stability of VEGF‐B167 lipidated peptides in mouse plasma determined by MSMS analysis. The stability of the peptides is shown relative to the control eucatropine. Samples were analysed in triplicate (n=1).
Peptide stability in mouse plasma: Mouse plasma stability tests were performed by Cyprotex. In brief, peptides were incubated with mouse plasma (adjusted for pH 7.4, 37 °C) to a final concentration of 10 μM and incubation volume of 500 μL (0.24 % DMSO). After the incubation period (0, 5, 15, 30, 60, and 120 min), the reactions were stopped by transferring 50 μL of incubate to 150 μL acetonitrile containing internal standard. Plasma proteins were precipitated out by centrifuging at 3,000 rpm for 45 min at 4 °C. The supernatant was diluted 1 : 1 with water and analysed by LC‐MS/MS.

[3] = target: T2, b1 domain of neuropilin‐1 (NRP1‐b1); experiment: SPR; NRP1-b1 immobilised on a CM5 chip by random amine coupling; peptides injected for 60 s, 120 or 180 s dissociation; 25 °C; regeneration with 1 M NaCl; kinetic fit, 1:1 model (MGC0122, MGC0123, MGC0124) or two-state model (MGC0171, MGC0172, MGC0173, MGC0174); conditions: both partners purified
[4] = SPR, immobilised NRP1-b1, 25 °C, two-state model, lipidated peptides, read-out: Second residence time calculated from two‐state model (converted)
[5] = IC50, cell‐based activity (HUVECs), inhibition of bt‐VEGF‐A165 binding to NRP1, bt-VEGF-A165 4 nM
[6] = read-out: Residence time (1/kd)

Row | Molecule | HS (of the inhibition curve of bt‐VEGF‐A165 binding to NRP1) ([1]; bt-VEGF-A165 4 nM) | Receptor occupancy (NRP1‐b1; SPR) | residence time (NRP1‐b1; [4]) | IC50 [1, 5] | Stability in mouse plasma (in words) [2] | Kd (NRP1‐b1) | residence time (NRP1‐b1; [6]) | Kd [3] | further results
1 | CCCCCCCCCCCCCCCC(=O)NCCCC[C@H](NC(=O)[C@H](CC(=O)O)NC(=O)[C@@H]1CSSC[C@@H]2NC(=O)[C@H](CCCNC(=N)N)NC(=O)[C@H](CO)NC(=O)[C@H](CC(=O)O)NC(=O)[C@H]([C@@H](C)O)NC(=O)[C@H](CC(N)=O)NC(=O)[C@H](CCCCN)NC(=O)[C@@H](NC(=O)[C@H](CO)NC(C)=O)CSSC[C@H](NC(=O)[C@H]([C@@H](C)O)NC(=O)[C@H](CCCNC(=N)N)NC(=O)[C@H](CCC(=O)O)NC(=O)[C@H](CC(N)=O)NC(=O)[C@H](CC(C)C)NC(=O)[C@H](CCC(=O)O)NC(=O)[C@H](CC(C)C)NC(=O)[C@H](CCC(N)=O)NC(=O)[C@H](CCCNC(=N)N)NC(=O)[C@H](C)NC(=O)[C@H](CCCCN)NC2=O)C(=O)N[C@@H](CCCNC(=N)N)C(=O)N1)C(=O)N1CCC[C@H]1C(=O)N[C@@H](CCCNC(=N)N)C(=O)N[C@@H](CCCNC(=N)N)C(=O)O [MGC0172] (Ac-SCKNTDSRCKARQLELNERTCRCDK(Palmitoyl)PRR-OH; disulfide 2-21, 9-23) | 1.9 | 22±1% | 1.99 min |  |  |  |  |  | IC50 ([1]; bt-VEGF-A165 4 nM, read-out: IC50, cell‐based activity (HUVECs), inhibition of bt‐VEGF‐A165 binding to NRP1): 10400 nM; residence time (NRP1‐b1; SPR, immobilised NRP1-b1, 25 °C, 1:1 model, or first residence time of the two-state model, read-out: Residence time (1/kd) (converted)): 0.123 min; Kd (NRP1‐b1; SPR, peptide injected 60 s over NRP1-b1 immobilised on CM5 chip, 25 °C, 1:1 model for MGC0122/0123/0124, two-state model for lipidated peptides, read-out: KD, SPR binding to NRP1‐b1): 1220 ± 250 nM
2 | CCCCCCCCCCCCCCCC(=O)NCCCC[C@H](NC(=O)[C@H](CCCNC(=N)N)NC(=O)[C@@H]1CSSC[C@@H]2NC(=O)[C@H](CCCNC(=N)N)NC(=O)[C@H](CC(C)C)NC(=O)[C@H](Cc3ccccc3)NC(=O)[C@H](CO)NC(=O)[C@H](CCCNC(=N)N)NC(=O)[C@H](CCCNC(=N)N)NC(=O)[C@H](CCCNC(=N)N)NC(=O)[C@@H](NC(=O)[C@H](CCCNC(=N)N)NC(C)=O)CSSC[C@H](NC(=O)[C@H]([C@@H](C)O)NC(=O)[C@H](CC(=O)O)NC(=O)[C@@H]3CCCN3C(=O)[C@H](CC(N)=O)NC(=O)[C@H](CC(C)C)NC(=O)[C@H](CCC(=O)O)NC(=O)[C@H](CC(C)C)NC(=O)CNC(=O)[C@H](CCCNC(=N)N)NC(=O)CNC(=O)[C@H](CCC(N)=O)NC2=O)C(=O)N[C@@H](CCCNC(=N)N)C(=O)N1)C(=O)N[C@@H](CC(C)C)C(=O)N[C@@H](CCCNC(=N)N)C(=O)N[C@@H](CCCNC(=N)N)C(=O)O [MGC0173] (Ac-RCRRRSFLRCQGRGLELNPDTCRCRK(Palmitoyl)LRR-OH; disulfide 2-22, 10-24) | 1.8 | 10±1% | 2.69 min | 2000 nM | maintained much better levels throughout the course of the experiment | 130 ± 30 nM | 0.0767 min |  | half-life at 10 μM ([2]; 0.24 % DMSO, 0-120 min): 51 min
3 | CCCCCCCCCCCCCCCC(=O)N[C@@H](CCCNC(=N)N)C(=O)N[C@H]1CSSC[C@@H]2NC(=O)[C@H]([C@@H](C)O)NC(=O)[C@H](CC(=O)O)NC(=O)[C@@H]3CCCN3C(=O)[C@H](CC(N)=O)NC(=O)[C@H](CC(C)C)NC(=O)[C@H](CCC(=O)O)NC(=O)[C@H](CC(C)C)NC(=O)CNC(=O)[C@H](CCCNC(=N)N)NC(=O)CNC(=O)[C@H](CCC(N)=O)NC(=O)[C@H](CSSC[C@@H](C(=O)N[C@@H](CCCNC(=N)N)C(=O)N[C@@H](CCCCN)C(=O)N[C@@H](CC(C)C)C(=O)N[C@@H](CCCNC(=N)N)C(=O)N[C@@H](CCCNC(=N)N)C(=O)O)NC(=O)[C@H](CCCNC(=N)N)NC2=O)NC(=O)[C@H](CCCNC(=N)N)NC(=O)[C@H](CC(C)C)NC(=O)[C@H](Cc2ccccc2)NC(=O)[C@H](CO)NC(=O)[C@H](CCCNC(=N)N)NC(=O)[C@H](CCCNC(=N)N)NC(=O)[C@H](CCCNC(=N)N)NC1=O [MGC0174] (Palmitoyl-RCRRRSFLRCQGRGLELNPDTCRCRKLRR-OH; disulfide 2-22, 10-24) | 1.9 | 47±3% | 4.46 min | 319 nM and 300 nM | quickly degraded to low levels after 15 min | 330 ± 50 nM | 0.248 min |  | 
4 | CC1CC(OC(=O)C(O)c2ccccc2)CC(C)(C)N1C (stereo not drawn) [eucatropine, reference compound] |  |  |  |  | degraded within literature parameters |  |  |  | 
5 | Hpt-DRAATPHHRPQPR (reading uncertain; also: printed as Hpt‐DRAATPHHRPQPR, VEGF-B186, human, the C-terminal stretch of the proteolytically processed form, ending in arginine; Only the C-terminal QPR is ordered in the crystal structure; also called VEGF‐B derived peptide MGC0122; source: synthetic peptide; bought: Peptide Protein Research (PeptideSynthetics), >95 % purity by HPLC) [MGC0122] |  |  |  |  |  |  |  | 9.55 ± 0.17 µM | 
6 | {6‑heptynoyl}-RCRRRSFLRCQGRGLELNPDTCRCRKLRR (disulfide (positions not given here); also: cyclised by disulphide, Cys pairing not given here) [MGC0123] |  |  |  |  |  |  |  | 0.39 ± 0.09 µM | 
